Assay results from PubChem BioAssay AID248 (DTP/NCI, 2004).
“And” between values parts separate entries of the source, which are not always exact repeats. Equal entries are not always repeated. Inconclusive results and toxic doses are left out. Cut-off read from the data, not from the text of the source: active = T/C of 150% or more; inactive = T/C below 125%.

Test system: L1210 leukemia ip in BDF1 mice, survival T/C
Assay: NCI In Vivo Anticancer Drug Screen. Data for tumor model L1210 Leukemia (intraperitoneal) in B6D2F1 (BDF1) mice
Details: endpoint: mean survival time, higher = longer survival
Summary of the method: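 Survival endpoint. Drug-treated group vs vehicle group, expressed as T divided by C. Tumor passaged by transplantation.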

[1] = dose: 75.0 mg/kg/injection, schedule: Q01DX001 (ip), vehicle: saline
[2] = dose: 150.0 mg/kg/injection, schedule: Q01DX001 (ip), vehicle: saline
[3] = dose: 100.0 mg/kg/injection, schedule: Q04DX003 (ip), vehicle: Klucel (hydroxypropylcellulose) (HPC)
[4] = dose: 200.0 mg/kg/injection, schedule: Q04DX003 (ip), vehicle: Klucel (hydroxypropylcellulose) (HPC)
[5] = dose: 400.0 mg/kg/injection, schedule: Q04DX003 (ip), vehicle: Klucel (hydroxypropylcellulose) (HPC)
[6] = dose: 100.0 mg/kg/injection, schedule: Q01DX001 (ip), vehicle: saline
[7] = dose: 200.0 mg/kg/injection, schedule: Q01DX001 (ip), vehicle: saline
[8] = dose: 400.0 mg/kg/injection, schedule: Q01DX001 (ip), vehicle: saline
[9] = dose: 200.0 mg/kg/injection, schedule: Q04DX002 (ip), vehicle: Klucel (hydroxypropylcellulose) (HPC)
[10] = dose: 400.0 mg/kg/injection, schedule: Q04DX002 (ip), vehicle: Klucel (hydroxypropylcellulose) (HPC)
[11] = dose: 100.0 mg/kg/injection, schedule: Q01DX001 (ip), vehicle: Klucel (hydroxypropylcellulose) (HPC)
[12] = dose: 200.0 mg/kg/injection, schedule: Q01DX001 (ip), vehicle: Klucel (hydroxypropylcellulose) (HPC)
[13] = dose: 400.0 mg/kg/injection, schedule: Q01DX001 (ip), vehicle: Klucel (hydroxypropylcellulose) (HPC)
[14] = dose: 100.0 mg/kg/injection, schedule: Q01DX009 (ip), vehicle: Klucel (hydroxypropylcellulose) (HPC)
[15] = dose: 200.0 mg/kg/injection, schedule: Q01DX009 (ip), vehicle: Klucel (hydroxypropylcellulose) (HPC)
[16] = dose: 400.0 mg/kg/injection, schedule: Q01DX009 (ip), vehicle: Klucel (hydroxypropylcellulose) (HPC)
[17] = dose: 100.0 mg/kg/injection, schedule: Q01DX001 (ip), vehicle: carboxymethylcellulose (CMC)
[18] = dose: 200.0 mg/kg/injection, schedule: Q01DX001 (ip), vehicle: carboxymethylcellulose (CMC)
[19] = dose: 400.0 mg/kg/injection, schedule: Q01DX001 (ip), vehicle: carboxymethylcellulose (CMC)
[20] = dose: 100.0 mg/kg/injection, schedule: Q04DX003 (ip), vehicle: saline
[21] = dose: 200.0 mg/kg/injection, schedule: Q04DX003 (ip), vehicle: saline
[22] = dose: 100.0 mg/kg/injection, schedule: Q04DX003 (ip), vehicle: saline with Tween-80
[23] = dose: 200.0 mg/kg/injection, schedule: Q04DX003 (ip), vehicle: saline with Tween-80
[24] = dose: 400.0 mg/kg/injection, schedule: Q04DX003 (ip), vehicle: saline with Tween-80
[25] = dose: 100.0 mg/kg/injection, schedule: Q01DX009 (ip), vehicle: saline with Tween-80
[26] = dose: 100.0 mg/kg/injection, schedule: Q04DX002 (ip), vehicle: Klucel (hydroxypropylcellulose) (HPC)

Measured: T/C

CN(C)CCNCc1ccccc1
inactive: dose: 44.4 mg/kg/injection, schedule: Q01DX001 (ip), vehicle: saline 95 % of control and 98 % of control | dose: 66.7 mg/kg/injection, schedule: Q01DX001 (ip), vehicle: saline 96 % of control and 102 % of control | [1] 98 % of control | [2] 91 % of control and 94 % of control | dose: 300.0 mg/kg/injection, schedule: Q01DX001 (ip), vehicle: saline 95 % of control

CCOC(=O)c1cnc(SC)nc1NC(C(=O)OCC)C(=O)OCC
inactive: [3] 93 % of control | [4] 100 % of control | [5] 95 % of control

Oc1cc2ccccc2c2c1ccc1ccccc12
inactive: [6] 102 % of control | [7] 111 % of control | [8] 102 % of control

CCc1c(CNc2ccc(C(=O)NC(CCC(=O)O)C(=O)O)cc2)ccc2nc(N)nc(N)c12 (stereo not drawn)
inactive: dose: 0.12 mg/kg/injection, schedule: Q01DX003 (ip), vehicle: saline 89 % of control | dose: 4.0 mg/kg/injection, schedule: Q01DX009 (ip), vehicle: saline 88 % of control | dose: 2.5 micrograms/kg/injection, schedule: Q01DX009 (ip), vehicle: saline 101 % of control | dose: 5.0 micrograms/kg/injection, schedule: Q01DX009 (ip), vehicle: saline 111 % of control | dose: 10.0 micrograms/kg/injection, schedule: Q01DX009 (ip), vehicle: saline 113 % of control

O=C(N/N=C/c1ccc(Cl)cc1)C(c1ccccc1)N1CCCCC1 (stereo not drawn)
inactive: dose: 100.0 mg/kg/injection, schedule: Q01DX001 (ip), vehicle: other 96 % of control | dose: 200.0 mg/kg/injection, schedule: Q01DX001 (ip), vehicle: other 87 % of control | dose: 400.0 mg/kg/injection, schedule: Q01DX001 (ip), vehicle: other 93 % of control

CCC1N=C(N)N=C(N)N1c1ccc(Cl)cc1 (stereo not drawn)
inactive: [1] 100 % of control | [2] 98 % of control

O=C(Nc1ccccc1)OC/C=C\c1ccccc1
inactive: [9] 90 % of control | [10] 93 % of control

O=c1[nH]c(-c2ccccc2)c(CO)c(=O)[nH]1
inactive: dose: 75.0 mg/kg/injection, schedule: Q04DX003 (ip), vehicle: Klucel (hydroxypropylcellulose) (HPC) 103 % of control | [11] 96 % of control | dose: 150.0 mg/kg/injection, schedule: Q04DX003 (ip), vehicle: Klucel (hydroxypropylcellulose) (HPC) 97 % of control | [12] 102 % of control | dose: 300.0 mg/kg/injection, schedule: Q04DX003 (ip), vehicle: Klucel (hydroxypropylcellulose) (HPC) 105 % of control | [13] 109 % of control

CC1c2c(-c3ccccc3)oc(-c3ccccc3)c2C(C)C(Br)C1Br (stereo not drawn)
inactive: [14] 121 % of control | [3] 103 % of control | [15] 104 % of control | [4] 90 % of control | [16] 109 % of control | [5] 92 % of control

Clc1ccccc1C=Nc1ccc2c(c1)Cc1ccccc1-2
inactive: [11] 87 % of control | [3] 101 % of control | [12] 93 % of control | [4] 94 % of control | [13] 87 % of control | [5] 101 % of control

C[N+](C)(C)/N=C/c1ccc(Cl)cc1
inactive: dose: 5.0 mg/kg/injection, schedule: Q01DX001 (ip), vehicle: carboxymethylcellulose (CMC) 98 % of control | dose: 10.0 mg/kg/injection, schedule: Q01DX001 (ip), vehicle: carboxymethylcellulose (CMC) 104 % of control | dose: 20.0 mg/kg/injection, schedule: Q01DX001 (ip), vehicle: carboxymethylcellulose (CMC) 95 % of control | dose: 40.0 mg/kg/injection, schedule: Q01DX001 (ip), vehicle: carboxymethylcellulose (CMC) 104 % of control

Cc1cccc(NC(=O)OCCN(CCOC(=O)Nc2cccc(C)c2)Cc2ccccc2)c1
inactive: dose: 50.0 mg/kg/injection, schedule: Q01DX001 (ip), vehicle: carboxymethylcellulose (CMC) 90 % of control | [17] 98 % of control | [18] 104 % of control | [19] 90 % of control

COC(=O)C[N+]12CN3CN(CN(C3)C1)C2
inactive: dose: 50.0 mg/kg/injection, schedule: Q01DX001 (ip), vehicle: saline 98 % of control | [6] 100 % of control | [20] 107 % of control | [7] 96 % of control | [21] 107 % of control | [8] 107 % of control | dose: 400.0 mg/kg/injection, schedule: Q04DX003 (ip), vehicle: saline 108 % of control

OCc1cccs1
inactive: [14] 108 % of control | [3] 97 % of control | [15] 94 % of control | [4] 97 % of control | [16] 103 % of control | [5] 97 % of control

Cc1ccc(N2CCN(Cc3ccc4ccccc4c3)CC2)cc1
inactive: [22] 102 % of control | [23] 94 % of control | [24] 100 % of control

Cc1[o+]c(C)c2c(c1C)-c1ccccc1C2=O
inactive: dose: 50.0 mg/kg/injection, schedule: Q01DX009 (ip), vehicle: saline with Tween-80 93 % of control | [25] 96 % of control | [22] 98 % of control | dose: 200.0 mg/kg/injection, schedule: Q01DX009 (ip), vehicle: saline with Tween-80 105 % of control | [23] 98 % of control | [24] 98 % of control

COc1ccc(-c2nnc(-c3ccc(OC)cc3)nn2)cc1
inactive: [26] 103 % of control | [9] 87 % of control | [10] 87 % of control

Cc1ccc(C)c(NCC(=O)NN)c1
inactive: [26] 103 % of control | [9] 100 % of control | [10] 100 % of control

C/C=C/C(=O)Nc1cccc(OC(=O)NC(C)(C)C)c1
inactive: [25] 91 % of control | dose: 400.0 mg/kg/injection, schedule: Q01DX009 (ip), vehicle: saline with Tween-80 86 % of control

[Co]#[Sb]
inactive: dose: 75.0 mg/kg/injection, schedule: Q04DX003 (sc), vehicle: olive oil, sesame oil, peanut oil 96 % of control | dose: 150.0 mg/kg/injection, schedule: Q04DX003 (sc), vehicle: olive oil, sesame oil, peanut oil 95 % of control | dose: 300.0 mg/kg/injection, schedule: Q04DX003 (sc), vehicle: olive oil, sesame oil, peanut oil 105 % of control

c1ccc(Sc2cc(Sc3ccccc3)c3cccccc2-3)cc1
inactive: [17] 96 % of control | [18] 100 % of control | [19] 87 % of control

Nc1ccc2c(c1)-n1cccc1C2=O
inactive: [3] 104 % of control | [4] 101 % of control

Cc1ccc(NC(=O)OCC(F)(F)C(F)(F)C(F)(F)F)c(NC(=O)OCC(F)(F)C(F)(F)C(F)(F)F)c1
inactive: dose: 100.0 mg/kg/injection, schedule: Q04DX002 (ip), vehicle: saline with Tween-80 98 % of control | dose: 200.0 mg/kg/injection, schedule: Q04DX002 (ip), vehicle: saline with Tween-80 98 % of control | dose: 400.0 mg/kg/injection, schedule: Q04DX002 (ip), vehicle: saline with Tween-80 112 % of control

COc1ccc(O)c(/C=N/NC(N)=S)c1
inactive: [14] 100 % of control | [3] 115 % of control | [15] 104 % of control | [4] 96 % of control | [16] 100 % of control | [5] 97 % of control

O=C(O)C(Oc1ccccc1O)C(=O)O
inactive: [20] 95 % of control | [21] 93 % of control
